From patent US10730863B2, “Bridged bicyclic compounds as farnesoid X receptor modulators” (BRISTOL-MYERS SQUIBB COMPANY, priority 2017, dated 2020) come the findings set out here.

SMILES strings stand for the structures.

The target in the assay is FXR (Homo sapiens (Human), UniProt Q96RI1). The assay can be described thus: FXR EC50 (FXR agonist activity reported with each example). It is filed as cell-based.
Sequence of FXR (Q96RI1 262-486): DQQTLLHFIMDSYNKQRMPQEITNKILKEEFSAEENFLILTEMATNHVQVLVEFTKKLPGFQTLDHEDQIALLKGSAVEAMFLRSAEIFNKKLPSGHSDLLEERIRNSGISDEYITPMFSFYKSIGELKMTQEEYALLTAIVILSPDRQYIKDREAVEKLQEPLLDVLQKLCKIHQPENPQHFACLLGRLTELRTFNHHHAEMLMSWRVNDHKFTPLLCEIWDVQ

By EC50 is commonly meant the concentration giving half of the maximal effect. Lower therefore signals a more potent agent. For the molecule `O=C(O)c1cccc(-c2noc(C34CCC(OCc5c(-c6ccccc6OC(F)(F)F)noc5C5CC5)(CC3)CC4)n2)c1` [Example 1, 3-(5-(4-((5-cyclopropyl-3-(2-(trifluoromethoxy)phenyl)isoxazol-4-yl)methoxy)bicyclo[2.2.2]octan-1-yl)-1,2,4-oxadiazol-3-yl)benzoic acid], the midpoint of the response, the EC50, lay at 110 nM.

`O=C(O)c1cc(F)c2nc(C(O)C34CCC(OCc5c(-c6c(Cl)cccc6Cl)noc5C5CC5)(CC3)CC4)sc2c1` (centres unmarked) [Example 122, 2-((4-((5-cyclopropyl-3-(2,6-dichlorophenyl)isoxazol-4-yl)methoxy)bicyclo[2.2.2]octan-1-yl)(hydroxy)methyl)-4-fluorobenzo[d]thiazole-6-carboxylic acid] came in with a 50% effective concentration (EC50) of 1000 nM.

As to `COc1ccc(-c2noc(C34CCC(OCc5c(-c6c(Cl)cncc6Cl)noc5C5CC5)(CC3)CC4)n2)cc1C(N)=O` [Example 240, 5-(5-(4-((5-cyclopropyl-3-(3,5-dichloropyridin-4-yl)isoxazol-4-yl)methoxy)bicyclo[2.2.2]octan-1-yl)-1,2,4-oxadiazol-3-yl)-2-methoxybenzamide], the EC50 was 170 nM.

Turning to `COc1cc(C(=O)O)ccc1OCC12CCC(/C=C/c3c(-c4c(Cl)cncc4Cl)noc3C3CC3)(CC1)CC2` [Example 450, (E)-4-((4-(2-(5-cyclopropyl-3-(3,5-dichloropyridin-4-yl)isoxazol-4-yl)vinyl)bicyclo[2.2.2]octan-1-yl)methoxy)-3-methoxybenzoic acid], a half-maximal response (EC50) required 18 nM.

In turn, `O=C(O)c1cccc2nc(C34CCC(CCc5c(-c6ccccc6OC(F)(F)F)noc5C5CC5)(CC3)CC4)sc12` [Example 456, 2-(4-(2-(5-cyclopropyl-3-(2-(trifluoromethoxy)phenyl)isoxazol-4-yl)ethyl)bicyclo[2.2.2]octan-1-yl)benzo[d]thiazole-7-carboxylic acid] returned an EC50 of 22 nM.

The molecule `COc1cc(OCC23CCC(/C=C/c4c(-c5c(Cl)cncc5Cl)noc4C4CC4)(CC2)CO3)cc(C(=O)O)c1` [Example 470, (E)-3-((4-(2-(5-cyclopropyl-3-(3,5-dichloropyridin-4-yl)isoxazol-4-yl)vinyl)-2-oxabicyclo[2.2.2]octan-1-yl)methoxy)-5-methoxybenzoic acid] came in with a concentration for a half-maximal effect (EC50) of 110 nM.

In the case of `O=C(O)c1cc(OCC23CCC(/C=C/c4c(-c5c(Cl)cncc5Cl)noc4C4CC4)(CC2)CC3)cc(C(F)(F)F)c1` [Example 506, (E)-3-((4-(2-(5-cyclopropyl-3-(3,5-dichloropyridin-4-yl)isoxazol-4-yl)vinyl)bicyclo[2.2.2]octan-1-yl)methoxy)-5-(trifluoromethyl)benzoic acid], a half-maximal response (EC50) required 6 nM.

Regarding `O=C(O)c1cccc2nc(C34CCC(C=Cc5c(-c6ccccc6OC(F)(F)F)noc5C5CC5)(CC3)CC4)sc12` [Example 186], the EC50 was found to be 67 nM.

As to `COc1cc(OCC23CCC(/C=C/c4c(-c5c(Cl)cncc5Cl)noc4C4CC4)(CC2)OC3)cc(C(=O)O)c1` [Example 474, (E)-3-((1-(2-(5-cyclopropyl-3-(3,5-dichloropyridin-4-yl)isoxazol-4-yl)vinyl)-2-oxabicyclo[2.2.2]octan-4-yl)methoxy)-5-methoxybenzoic acid], the midpoint of the response, the EC50, lay at 490 nM.

As to `CN(C)c1cc(-c2noc(C34CCC(OCc5c(-c6c(Cl)cncc6Cl)noc5C5CC5)(CC3)CC4)n2)cc(C(=O)O)n1` [Example 262, 4-(5-(4-((5-cyclopropyl-3-(3,5-dichloropyridin-4-yl)isoxazol-4-yl)methoxy)bicyclo[2.2.2]octan-1-yl)-1,2,4-oxadiazol-3-yl)-6-(dimethylamino)picolinic acid], a half-maximal response (EC50) required 53 nM.

Consider `O=C(O)c1ccc(-c2noc(C34CCC(OCc5c(-c6c(Cl)cncc6Cl)noc5C5CC5)(CC3)CO4)n2)cc1` [Example 218], for which the EC50 worked out at 160 nM.

`COc1ccc(-c2noc(C34CCC(/C=C/c5c(-c6c(Cl)cncc6Cl)noc5C5CC5)(CC3)OC4)n2)cc1C(=O)O` [Example 496, (E)-5-(5-(1-(2-(5-cyclopropyl-3-(3,5-dichloropyridin-4-yl)isoxazol-4-yl)vinyl)-2-oxabicyclo[2.2.2]octan-4-yl)-1,2,4-oxadiazol-3-yl)-2-methoxybenzoic acid] returned a 50% effective concentration (EC50) of 1000 nM.

Consider `O=C(O)c1cc(-c2noc(C34CCC(OCc5c(-c6c(Cl)cncc6Cl)noc5C5CC5)(CC3)CC4)n2)cc(OC2CCC2)n1` [Example 261, 6-cyclobutoxy-4-(5-(4-((5-cyclopropyl-3-(3,5-dichloropyridin-4-yl)isoxazol-4-yl)methoxy)bicyclo[2.2.2]octan-1-yl)-1,2,4-oxadiazol-3-yl)picolinic acid], for which the EC50 amounted to 36 nM.

Molecule `O=C(O)c1ccc(-c2noc(C34CCC(OCc5c(-c6ccccc6OC(F)(F)F)noc5C5CC5)(CC3)CC4)n2)cn1` [Example 12, 5-(5-(4-((5-cyclopropyl-3-(2-(trifluoromethoxy)phenyl)isoxazol-4-yl)methoxy)bicyclo[2.2.2]octan-1-yl)-1,2,4-oxadiazol-3-yl)picolinic acid] registered a concentration giving a half-maximal response (EC50) of 1200 nM.

In the case of `O=C(O)c1ccc2nc(C34CCC(OCc5c(-c6ccccc6OC(F)(F)F)noc5C5CC5)(CC3)CC4)sc2c1` [Example 38], a half-maximal response (EC50) required 360 nM.

`Oc1ccc(-c2noc(C34CCC(OCc5c(-c6c(Cl)cncc6Cl)noc5C5CC5)(CC3)CC4)n2)cc1-c1nnn[nH]1` [Example 242, 4-(5-(4-((5-cyclopropyl-3-(3,5-dichloropyridin-4-yl)isoxazol-4-yl)methoxy)bicyclo[2.2.2]octan-1-yl)-1,2,4-oxadiazol-3-yl)-2-(1H-tetrazol-5-yl)phenol] registered an EC50 of 1400 nM.

The molecule `O=C(O)C1CC1c1noc(C23CCC(OCc4c(-c5c(Cl)cncc5Cl)noc4C4CC4)(CC2)CC3)n1` (centres unmarked) [Example 270, 2-(5-(4-((5-cyclopropyl-3-(3,5-dichloropyridin-4-yl)isoxazol-4-yl)methoxy)bicyclo[2.2.2]octan-1-yl)-1,2,4-oxadiazol-3-yl)cyclopropane-1-carboxylic acid] showed an EC50 of 1500 nM.

Molecule `COCc1cc(OCC23CCC(OCc4c(-c5c(Cl)cncc5Cl)noc4C4CC4)(CC2)CC3)cnc1C(=O)O` [Example 293, 5-((4-((5-cyclopropyl-3-(3,5-dichloropyridin-4-yl)isoxazol-4-yl)methoxy)bicyclo[2.2.2]octan-1-yl)methoxy)-3-(methoxymethyl)picolinic acid] displayed an EC50 of 16 nM.

In turn, `O=C(O)c1cc(OCC2CC2)c2cc(OCC34CCC(OCc5c(-c6c(Cl)cncc6Cl)noc5C5CC5)(CC3)CC4)ccc2n1` [Example 346] came in with a concentration giving a half-maximal response (EC50) of 18 nM.

For the molecule `NC(=O)c1cccc(OCC23CCC(OCc4c(-c5c(Cl)cccc5Cl)noc4C4CC4)(CC2)CC3)n1` [Example 117, 6-((4-((5-cyclopropyl-3-(2,6-dichlorophenyl)isoxazol-4-yl)methoxy)bicyclo[2.2.2]octan-1-yl)methoxy)picolinamide], the concentration for a half-maximal effect (EC50) was 310 nM.

Consider `O=C(O)c1cccc2cc(OCC34CCC(OCc5c(-c6c(Cl)cncc6Cl)noc5C5CC5)(CC3)CC4)cnc12` [Example 352, 3-((4-((5-cyclopropyl-3-(3,5-dichloropyridin-4-yl)isoxazol-4-yl)methoxy)bicyclo[2.2.2]octan-1-yl)methoxy)quinoline-8-carboxylic acid], for which the EC50 was 55 nM.

On to `O=C(O)c1cc(C(F)(F)F)c2cc(C#CC34CCC(OCc5c(-c6c(Cl)cncc6Cl)noc5C5CC5)(CC3)CC4)ccc2n1` [Example 364], for which a half-maximal effect (EC50) was put at 42 nM.

Molecule `O=C(O)c1c(OC2CCC2)cc(Cl)c2nc(C34CCC(OCc5c(-c6c(Cl)cncc6Cl)noc5C5CC5)(CC3)CC4)ccc12` [Example 429] showed a 50% effective concentration (EC50) of 4 nM.

The molecule `O=C(O)c1ccc(NC(=S)C23CCC(COCc4c(-c5c(Cl)cccc5Cl)noc4C4CC4)(CC2)CC3)c(Cl)c1` [Example 171, 3-chloro-4-(4-(((5-cyclopropyl-3-(2,6-dichlorophenyl)isoxazol-4-yl)methoxy)methyl)bicyclo[2.2.2]octane-1-carbothioamido)benzoic acid] yielded a concentration for a half-maximal effect (EC50) of 4700 nM.

`O=C(O)c1cnc(N2CC(F)C2)c(C#CC23CCC(OCc4c(-c5c(Cl)cncc5Cl)noc4C4CC4)(CC2)CC3)c1` [Example 523, 5-((4-((5-cyclopropyl-3-(3,5-dichloropyridin-4-yl)isoxazol-4-yl)methoxy)bicyclo[2.2.2]octan-1-yl)ethynyl)-6-(3-fluoroazetidin-1-yl)nicotinic acid]: the EC50 turned out to be 24 nM.

In the case of `COc1cncc(Cl)c1-c1noc(C2CC2)c1COC12CCC(COc3cc(OC)c4cc(C(=O)O)ccc4n3)(CC1)CC2` [Example 350, 2-((4-((3-(3-chloro-5-methoxypyridin-4-yl)-5-cyclopropylisoxazol-4-yl)methoxy)bicyclo[2.2.2]octan-1-yl)methoxy)-4-methoxyquinoline-6-carboxylic acid], the response was half-maximal at 890 nM (EC50).

As to `O=C(O)c1ccc(-c2noc(C34CCC(CNc5c(-c6c(Cl)cccc6Cl)noc5C5CC5)(CC3)CC4)n2)cc1` [Example 167], the midpoint of the response, the EC50, lay at 530 nM.

Molecule `O=C(O)c1cccc(NCC23CCC(OCc4c(-c5ccccc5OC(F)(F)F)noc4C4CC4)(CC2)CC3)c1` [Example 85] gave a concentration for a half-maximal effect (EC50) of 610 nM.

In the case of `CN(C)c1cc(C(=O)O)nc2ccc(OCC34CCC(OCc5c(-c6c(Cl)cncc6Cl)noc5C5CC5)(CC3)CC4)cc12` [Example 330], the response was half-maximal at 1500 nM (EC50).

The molecule `O=C(O)c1cc(C(F)(F)F)cc(OCC23CCC(OCc4c(-c5c(Cl)cncc5Cl)noc4C4CC4)(CC2)CC3)n1` [Example 280, 6-((4-((5-cyclopropyl-3-(3,5-dichloropyridin-4-yl)isoxazol-4-yl)methoxy)bicyclo[2.2.2]octan-1-yl)methoxy)-4-(trifluoromethyl)picolinic acid] returned a concentration giving a half-maximal response (EC50) of 23 nM.

Regarding `O=C(O)c1cccc(NC(=O)C23CCC(C=Cc4c(-c5c(Cl)cccc5Cl)noc4C4CC4)(CC2)CC3)c1` [Example 188], the EC50 amounted to 120 nM.

The molecule `CC(C)Oc1nc(C(=O)O)cc2ccc(OCC34CCC(OCc5c(-c6c(Cl)cncc6Cl)noc5C5CC5)(CC3)CC4)cc12` [Example 357, 7-((4-((5-cyclopropyl-3-(3,5-dichloropyridin-4-yl)isoxazol-4-yl)methoxy)bicyclo[2.2.2]octan-1-yl)methoxy)-1-isopropoxyisoquinoline-3-carboxylic acid] returned a concentration for a half-maximal effect (EC50) of 13 nM.
